Calls of active or inactive are those of the source. The rule behind the calls is not given here.
System: CCRIS mutagenicity, Ames/micronucleus/aberration tests
Assay: CCRIS mutagenicity studies
[1] = Test System: AMES SALMONELLA TYPHIMURIUM, Strain/Indicator: TA98, Metabolic Activation: NONE, Method: PREINCUBATION
[2] = Test System: AMES SALMONELLA TYPHIMURIUM, Strain/Indicator: TA100, Metabolic Activation: NONE, Method: PREINCUBATION
[3] = Test System: AMES SALMONELLA TYPHIMURIUM, Strain/Indicator: TA98, Metabolic Activation: NONE, Method: STANDARD PLATE
[4] = Test System: AMES SALMONELLA TYPHIMURIUM, Strain/Indicator: TA98, Metabolic Activation: RAT, LIVER, S-9, AROCLOR 1254, Method: STANDARD PLATE
[5] = Test System: AMES SALMONELLA TYPHIMURIUM, Strain/Indicator: TA100, Metabolic Activation: NONE, Method: STANDARD PLATE
[6] = Test System: AMES SALMONELLA TYPHIMURIUM, Strain/Indicator: TA100, Metabolic Activation: RAT, LIVER, S-9, AROCLOR 1254, Method: STANDARD PLATE
[7] = Test System: AMES SALMONELLA TYPHIMURIUM, Strain/Indicator: TA1535, Metabolic Activation: NONE, Method: STANDARD PLATE
[8] = Test System: AMES SALMONELLA TYPHIMURIUM, Strain/Indicator: TA1535, Metabolic Activation: RAT, LIVER, S-9, AROCLOR 1254, Method: STANDARD PLATE
[9] = Test System: AMES SALMONELLA TYPHIMURIUM, Strain/Indicator: TA1537, Metabolic Activation: NONE, Method: STANDARD PLATE
[10] = Test System: AMES SALMONELLA TYPHIMURIUM, Strain/Indicator: TA1537, Metabolic Activation: RAT, LIVER, S-9, AROCLOR 1254, Method: STANDARD PLATE
[11] = Test System: AMES SALMONELLA TYPHIMURIUM, Strain/Indicator: TA98, Metabolic Activation: S-9, Method: STANDARD PLATE
[12] = Test System: AMES SALMONELLA TYPHIMURIUM, Strain/Indicator: TA100, Metabolic Activation: S-9, Method: STANDARD PLATE
[13] = Test System: AMES SALMONELLA TYPHIMURIUM, Strain/Indicator: TA1537, Metabolic Activation: S-9, Method: STANDARD PLATE

CCCCC(CC)COC(=O)CCCCCCCCC(=O)OCC(CC)CCCC (centres undefined)
mutagenic call (Test System: AMES SALMONELLA TYPHIMURIUM, Strain/Indicator: TA98, Metabolic Activation: HAMSTER, LIVER, S-9, AROCLOR 1254 (10%), Method: PREINCUBATION): inactive; negative
mutagenic call [1]: inactive; negative
mutagenic call (Test System: AMES SALMONELLA TYPHIMURIUM, Strain/Indicator: TA98, Metabolic Activation: RAT, LIVER, S-9, AROCLOR 1254 (10%), Method: PREINCUBATION): inactive; negative
mutagenic call (Test System: AMES SALMONELLA TYPHIMURIUM, Strain/Indicator: TA100, Metabolic Activation: HAMSTER, LIVER, S-9, AROCLOR 1254 (10%), Method: PREINCUBATION): inactive; negative
mutagenic call [2]: inactive; negative
mutagenic call (Test System: AMES SALMONELLA TYPHIMURIUM, Strain/Indicator: TA100, Metabolic Activation: RAT, LIVER, S-9, AROCLOR 1254 (10%), Method: PREINCUBATION): inactive; negative
mutagenic call (Test System: AMES SALMONELLA TYPHIMURIUM, Strain/Indicator: TA1535, Metabolic Activation: HAMSTER, LIVER, S-9, AROCLOR 1254 (10%), Method: PREINCUBATION): inactive; negative
mutagenic call (Test System: AMES SALMONELLA TYPHIMURIUM, Strain/Indicator: TA1535, Metabolic Activation: NONE, Method: PREINCUBATION): inactive; negative
mutagenic call (Test System: AMES SALMONELLA TYPHIMURIUM, Strain/Indicator: TA1535, Metabolic Activation: RAT, LIVER, S-9, AROCLOR 1254 (10%), Method: PREINCUBATION): inactive; negative
mutagenic call (Test System: AMES SALMONELLA TYPHIMURIUM, Strain/Indicator: TA1537, Metabolic Activation: HAMSTER, LIVER, S-9, AROCLOR 1254 (10%), Method: PREINCUBATION): inactive; negative
mutagenic call (Test System: AMES SALMONELLA TYPHIMURIUM, Strain/Indicator: TA1537, Metabolic Activation: NONE, Method: PREINCUBATION): inactive; negative
mutagenic call (Test System: AMES SALMONELLA TYPHIMURIUM, Strain/Indicator: TA1537, Metabolic Activation: RAT, LIVER, S-9, AROCLOR 1254 (10%), Method: PREINCUBATION): inactive; negative
mutagenic call (Test System: Ames Salmonella typhimurium, Strain/Indicator: TA98, Metabolic Activation: None, Method: Preincubation): inactive; negative
mutagenic call (Test System: Ames Salmonella typhimurium, Strain/Indicator: TA98, Metabolic Activation: Rat, Liver, S9, Phenobarbital and 5,6-benzoflavone, Method: Preincubation): inactive; negative
mutagenic call (Test System: Ames Salmonella typhimurium, Strain/Indicator: TA100, Metabolic Activation: None, Method: Preincubation): inactive; negative
mutagenic call (Test System: Ames Salmonella typhimurium, Strain/Indicator: TA100, Metabolic Activation: Rat, Liver, S9, Phenobarbital and 5,6-benzoflavone, Method: Preincubation): inactive; negative
mutagenic call (Test System: Ames Salmonella typhimurium, Strain/Indicator: TA1535, Metabolic Activation: None, Method: Preincubation): inactive; negative
mutagenic call (Test System: Ames Salmonella typhimurium, Strain/Indicator: TA1535, Metabolic Activation: Rat, Liver, S9, Phenobarbital and 5,6-benzoflavone, Method: Preincubation): inactive; negative
mutagenic call (Test System: Ames Salmonella typhimurium, Strain/Indicator: TA1537, Metabolic Activation: None, Method: Preincubation): inactive; negative
mutagenic call (Test System: Ames Salmonella typhimurium, Strain/Indicator: TA1537, Metabolic Activation: Rat, Liver, S9, Phenobarbital and 5,6-benzoflavone, Method: Preincubation): inactive; negative
mutagenic call (Test System: E. coli, Strain/Indicator: WP2uvrA/pKM101, Metabolic Activation: None, Method: Preincubation): inactive; negative
mutagenic call (Test System: E. coli, Strain/Indicator: WP2uvrA/pKM101, Metabolic Activation: Rat, Liver, S9, Phenobarbital and 5,6-benzoflavone, Method: Preincubation): inactive; negative

OCCNc1ccc(N=Nc2ccc(N(CCO)CCO)cc2)cc1
mutagenic call (Test System: AMES SALMONELLA TYPHIMURIUM, Strain/Indicator: TA98, Metabolic Activation: HAMSTER, LIVER, S-9, AROCLOR 1254, Method: STANDARD PLATE): inactive; negative
mutagenic call [3]: inactive; negative
mutagenic call (Test System: AMES SALMONELLA TYPHIMURIUM, Strain/Indicator: TA98, Metabolic Activation: RAT, LIVER, S-9, AROCLOR 1254, Method: PREINCUBATION): inactive; negative
mutagenic call [4]: inactive; negative
mutagenic call [5]: inactive; negative
mutagenic call [6]: inactive; negative
mutagenic call [7]: inactive; negative
mutagenic call [8]: inactive; negative
mutagenic call [9]: inactive; negative
mutagenic call [10]: inactive; negative
mutagenic call (Test System: AMES SALMONELLA TYPHIMURIUM, Strain/Indicator: TA1538, Metabolic Activation: NONE, Method: STANDARD PLATE): inactive; negative
mutagenic call (Test System: AMES SALMONELLA TYPHIMURIUM, Strain/Indicator: TA1538, Metabolic Activation: RAT, LIVER, S-9, AROCLOR 1254, Method: STANDARD PLATE): inactive; negative

COc1cc2nc3cc(N)ccc3nc2cc1N
mutagenic call (Test System: AMES SALMONELLA TYPHIMURIUM, Strain/Indicator: TA98, Metabolic Activation: S-9, Method: SUSPENSION/PLATE): active; positive

N=c1ccn2c(n1)O[C@H]1[C@H](O)[C@@H](CO)O[C@H]12
mutagenic call [11]: inactive; negative
mutagenic call [12]: inactive; negative
mutagenic call [13]: inactive; negative
mutagenic call (Test System: E. COLI, Strain/Indicator: WP2 (HCR), Metabolic Activation: S-9, Method: STANDARD PLATE): inactive; negative

COc1ccc(N(CCCl)CCCl)c2cc([N+](=O)[O-])oc12
mutagenic call (Test System: AMES SALMONELLA TYPHIMURIUM, Strain/Indicator: TA100(NR), Metabolic Activation: NONE, Method: STANDARD PLATE): inactive; negative
mutagenic call (Test System: AMES SALMONELLA TYPHIMURIUM, Strain/Indicator: TA100(NR), Metabolic Activation: RAT, LIVER, S-9, AROCLOR 1254, Method: STANDARD PLATE): active; positive
mutagenic call [5]: active; positive
mutagenic call [6]: active; positive

CC(CO)[N+](=O)[O-] (centres undefined)
mutagenic call [1]: inactive; negative
mutagenic call (Test System: AMES SALMONELLA TYPHIMURIUM, Strain/Indicator: TA98, Metabolic Activation: RAT, LIVER, S-9, AROCLOR, Method: PREINCUBATION): inactive; negative
mutagenic call [2]: inactive; negative
mutagenic call (Test System: AMES SALMONELLA TYPHIMURIUM, Strain/Indicator: TA100, Metabolic Activation: RAT, LIVER, S-9, AROCLOR, Method: PREINCUBATION): inactive; negative
mutagenic call (Test System: AMES SALMONELLA TYPHIMURIUM, Strain/Indicator: TA102, Metabolic Activation: NONE, Method: PREINCUBATION): inactive; negative
mutagenic call (Test System: AMES SALMONELLA TYPHIMURIUM, Strain/Indicator: TA102, Metabolic Activation: RAT, LIVER, S-9, AROCLOR, Method: PREINCUBATION): inactive; negative

Cc1ccc(S(=O)(=O)OCc2ccccc2)cc1
mutagenic call [5]: inactive; negative

C[C@]12CC[C@@H]3c4ccc(OC(=O)c5ccccc5)cc4CC[C@H]3[C@@H]1CC[C@@H]2O
mutagenic call (End Point: IN VIVO MICRONUCLEUS, Test System: BONE MARROW POLYCHROMATIC ERYTHROCYTES, Species: RAT, Strain/Sex: ALDERLEY PARK (AP)/FEMALE, Route: SUBCUTANEOUS (TEST MATERIAL SOLVENT: OIL)): inactive; negative

Fc1cccc2c1ccc1cccnc12
mutagenic call (Test System: AMES SALMONELLA TYPHIMURIUM, Strain/Indicator: TA100, Metabolic Activation: RAT, LIVER, S-9, PHENOBARBITAL AND 5,6-BENZOFLAVONE, Method: PREINCUBATION): active; positive

COC(=O)/C(C#N)=C/c1ccc([N+](=O)[O-])o1
mutagenic call [1]: active; positive

O=C(O)c1cc(Cl)cc2cccnc12
mutagenic call [3]: inactive; negative
mutagenic call [4]: active; positive
mutagenic call [5]: inactive; negative
mutagenic call [6]: active; positive
mutagenic call [7]: inactive; negative
mutagenic call [8]: inactive; negative
mutagenic call [9]: inactive; negative
mutagenic call [10]: active; positive

CC(C)CN(C(=O)CCCl)c1snc2ccccc12
mutagenic call [3]: inactive; negative
mutagenic call [11]: inactive; negative
mutagenic call [5]: inactive; negative
mutagenic call [12]: inactive; negative
mutagenic call [7]: inactive; negative
mutagenic call (Test System: AMES SALMONELLA TYPHIMURIUM, Strain/Indicator: TA1535, Metabolic Activation: S-9, Method: STANDARD PLATE): inactive; negative
mutagenic call [9]: inactive; negative
mutagenic call [13]: inactive; negative

— PubChem BioAssay AID1259407 (Chemical Carcinogenesis Research Information System (CCRIS), 2018)
